Bounds are passed on as bounds.

The subject of series [1] is peripheral blood mononuclear cells (PBMC). Kind of series: Cytotoxicity of test compounds in PBMC, cell viability by MTS reagent. Format: cell-based, human. As to the method: (§1) TNF-α production by LPS in peripheral blood mononuclear cells (PBMC) was measured according to the method described by Henry et al (J. Bioorg. Med. Chem. Lett., 8: 3335-3340, 1998). Briefly, blood was collected from healthy donors into Potassium EDTA vacutainer tubes (Vacutest Plast/Becton Dickinson). PBMC were isolated using gradient centrifugation in Ficoll-Paque solution (Pharmacia). Isolated PBMC were suspended in RPMI 1640 culture medium (Gibco BRL, Pasley, UK) containing 10% fetal bovine serum (FBS) (Hyclone, Utah, USA), 100 U/ml penicillin (Sigma Chemical Co. St Louis, Mo.) and 100 μg/ml streptomycin (Sigma Chemical Co. St Louis, Mo.). The cell concentration was adjusted to 1×10^6 cells/ml. The viability as determined by trypan blue dye exclusion was uniformly ≧98%. The cell suspension (100 μl) was added to the wells of a 96-well culture plate. Following cell plating, 79 μl of the culture medium and 1 μl of eight different concentrations of the test compounds (final concentration 0.03, 0.1, 0.3, 1, 3, 10, 30, 100 μM) dissolved in DMSO (dimethylsulfoxide, Sigma, Mo., USA) were added to the cells. The final concentration of DMSO was adjusted to 0.5%. The appropriate DMSO concentration was used as control. Rolipram (30 μM) was used as a standard compound. The plates were incubated for 30 min at 37° C. in an atmosphere of 5% CO2. Finally, 20 μl (10 μg/ml) per well of LPS, (Escherchia coli 0127:B8, Sigma Chemical Co., St. Louis, Mo.) was added, for a final concentration of 1 μg/ml. The plates were incubated at 37° C. for 4.5 h in an atmosphere of 5% CO2. To determine the cytotoxicity of the test compounds, the cell viability was assessed using MTS (3-(4,5-dimethylthiazol-2-yl)-5-(3-carboxymethoxyphenyl)-2-(4-sulfonyl)-2H-tetrazolium) reagent (Promega) after 4.5 h of incubation. Supernatants were harvested and assayed for TNF-α by ELISA as described by the manufacturer (R&D Systems, MN, BD Biosciences Pharmingen) or by cytotoxicity bioassay in L929 cells. The 50% inhibitory concentration (IC50) values were calculated by a nonlinear regression method using GraphPad software (Prism 3.03)
On the technique in general: Tetrazolium dyes change colour on reduction, which living cells bring about.

Series [2] has as its system TNF-α. Kind of series: LPS-induced TNF-α production in peripheral blood mononuclear cells (secondary screening). Format: cell-based. Here is the method:
as §1

Series [3] relates to TNF-α. Kind of series: Whole blood cell culture assay: LPS-induced TNF-α release (primary screening). It is filed as cell-based, human. The conditions noted are these: test compound 1 μM, diluted whole blood of healthy donors, LPS 1 μg/ml, 4.5 h, vs DMSO control; for inhibition at 1 µM: Homo sapiens, Whole blood cell. Here is the method: TNF-α production by lipopolysaccharide (LPS) in whole blood was measured according to the method described by Wilson et al (J. Immunol. Methods, 139: 233-240, 1991). Briefly, blood was collected from healthy donors into potassium EDTA vacutainer tubes (Vacutest Plast/Becton Dickinson) and diluted with RPMI 1640 culture medium (Gibco BRL, Pasley, UK) containing 100 U/ml penicillin and 100 μg/ml streptomycin, (100× solution, Sigma Chemical Co. St Louis, Mo.) with no added serum. The white blood cell count was adjusted to 1×10^6 cells/ml and 100 μl/well of the diluted blood was transferred into 96-well culture plates. Following cell plating, 79 μl of culture medium and 1 μl of the test compounds (final concentration 1 μM) dissolved in DMSO (dimethylsulfoxide, Sigma, Mo., USA) was added to the cells. The final concentration of DMSO was adjusted to 0.5%. 1 μl of vehicle (0.5% DMSO) was used as control. Rolipram (100 μM) was used as a standard compound. The plates were incubated for 30 min at 37° C. in an atmosphere of 5% CO2. Finally, 20 μl (10 μg/ml) per well of LPS (Escherchia coli 0127:B8, Sigma Chemical Co., St. Louis, Mo.) was added, for a final concentration of 1 μg/ml. Plates were incubated at 37° C. for 4.5 h in an atmosphere of 5% CO2. Supernatants were harvested and assayed for TNF-α by ELISA as described by the manufacturer (R&D Systems, MN) or by cytotoxicity bioassay in L929 cells. Percent inhibition of TNF-α release in comparison to the control was calculated.

[4] abbreviates: 4.5 h, TNF-α production in PBMC, LPS 1 μg/ml, ELISA or L929 bioassay.

Usually melting point stands for the temperature, or range, at which the solid turns liquid. `COC(=O)c1cc(C)c2c(c1)S(=O)(=O)Cc1cc(N(CCCl)CCCl)cc(Cl)c1O2` had a melting point of 190 to 191 °C. The same measure, in the same setting: for `COC(=O)c1cc(C)c2c(c1)S(=O)(=O)Cc1cc(NC(=O)CCl)cc(Cl)c1O2` [Example 4, 4-Chloro-2-(2-chloro-acetylamino)-6-methyl-10,10-dioxo-10,11-dihydro-5-oxa-10lambda*6*-thia-dibenzo[a,d]cycloheptene-8-carboxylic acid methyl ester] the value was 292 to 293 °C. What is called IC50 is the concentration needed to halve the response being measured. A low value points to greater potency. `COC(=O)c1cc(C)c2c(c1)S(=O)(=O)Cc1cc(NC(=O)CO)cc(Cl)c1O2` [Example 5A, 4-Chloro-2-(2-hydroxy-acetylamino)-6-methyl-10,10-dioxo-10,11-dihydro-5-oxa-10lambda*6*-thia-dibenzo[a,d]cycloheptene-8-carboxylic acid methyl ester]: the “% toxicity (10 μM), 5 h” value in series [1] came out at 00%. In the series with TNF-α [2] (setting [4]), this compound returned a half-inhibitory concentration (IC50) of 8600 ± 1300 nM. On the same counts, the results for `COC(=O)c1cc(C)c2c(c1)S(=O)(=O)Cc1cc(NC(=O)COC(C)=O)cc(Cl)c1O2` [Example 5B, 2-(2-Acetoxy-acetylamino)-4-chloro-6-methyl-10,10-dioxo-10,11-dihydro-5-oxa-10lambda*6*-thia-dibenzo[a,d]cycloheptene-8-carboxylic acid methyl ester] are 00% and 9100 ± 1600 nM. The term inhibition denotes the relative decrease from the control value, in per cent. The low end stands for a weak effect, the high end for a strong effect. In turn, `CCC(=O)Nc1cc(Cl)c2c(c1)CS(=O)(=O)c1cc(C(=O)OC)cc(C)c1O2` [Example 6, 4-Chloro-6-methyl-10,10-dioxo-2-propionylamino-10,11-dihydro-5-oxa-10lambda*6*-thia-dibenzo[a,d]cycloheptene-8-carboxylic acid methyl ester] registered a melting point of 226 to 228 °C. In the series with TNF-α [3], this compound displayed an inhibition at 1 µM of 89%. Compound `CCOC(=O)c1cc(C)c2c(c1)S(=O)(=O)Cc1cc(NC=O)cc(Cl)c1O2` [Example 10, 4-Chloro-2-formylamino-6-methyl-10,10-dioxo-10,11-dihydro-5-oxa-10lambda*6*-thia-dibenzo[a,d]cycloheptene-8-carboxylic acid ethyl ester] returned a melting point of 202 to 204 °C. The same measure, in the same setting: for `COC(=O)c1cc(C)c2c(c1)S(=O)(=O)Cc1cc(N(CCO)CCO)cc(Cl)c1O2` [Example 13, 2-[Bis-(2-hydroxy-ethyl)-amino]-4-chloro-6-methyl-10,10-dioxo-10,11-dihydro-5-oxa-10lambda*6*-thia-dibenzo[a,d]cycloheptene-8-carboxylic acid methyl ester] the value was 199 to 201 °C. `COC(=O)c1cc(C)c2c(c1)[S+]([O-])Cc1cc(N3CCNCC3)cc(Cl)c1O2.Cl` (centres unmarked) [Example 15, 4-Chloro-6-methyl-10-oxo-2-piperazin-1-yl-10,11-dihydro-5-oxa-10lambda*4*-thia-dibenzo[a,d]cycloheptene-8-carboxylic acid methyl ester hydrochloride] displayed a melting point greater than 320 °C. The “% toxicity (10 μM), 5 h” value in series [1] stood at 25%. The compound further had a half-maximal inhibitory concentration (IC50) with TNF-α [2] (setting [4]) of 550 nM. Compound `COC(=O)c1cc(C)c2c(c1)S(=O)(=O)Cc1cc(N3CCNCC3)cc(Cl)c1O2.CS(=O)(=O)O` [Example 17, 4-Chloro-6-methyl-10,10-dioxo-2-piperazin-1-yl-10,11-dihydro-5-oxa-10lambda*6*-thia-dibenzo[a,d]cycloheptene-8-carboxylic acid methyl ester mesylate] came in with a melting point of 279 to 281 °C. For the same compound, the “% toxicity (10 μM), 5 h” value in series [1] is recorded as 66%. Also, the concentration for half-maximal inhibition (IC50) in the series on TNF-α [2] (TNF-α production in PBMC; LPS 1 μg/ml, 4.5 h; ELISA or L929 bioassay; mesylate) was determined as 100 nM. Compound `CS(=O)(=O)O.Cc1cc(C(=O)O)cc2c1Oc1c(Cl)cc(N3CCNCC3)cc1CS2(=O)=O` [Example 19, 4-Chloro-6-methyl-10,10-dioxo-2-piperazin-1-yl-10,11-dihydro-5-oxa-10lambda*6*-thia-dibenzo[a,d]cycloheptene-8-carboxylic acid mesylate] displayed a melting point of 278 to 280 °C. Same read-out and setting: for `COC(=O)c1cc(C)c2c(c1)S(=O)(=O)Cc1cc(N3CCOCC3)cc(Cl)c1O2` [Example 30, 4-Chloro-6-methyl-2-morpholin-4-yl-10,10-dioxo-10,11-dihydro-5-oxa-10lambda*6*-thia-dibenzo[a,d]cycloheptene-8-carboxylic acid methyl ester] the value was greater than 320 °C. Regarding `COC(=O)c1cc(C)c2c(c1)S(=O)(=O)Cc1ccc(NCCN)c(Cl)c1O2.Cl` [Example 31, 3-(2-Amino-ethylamino)-4-chloro-6-methyl-10,10-dioxo-10,11-dihydro-5-oxa-10lambda*6*-thia-dibenzo[a,d]cycloheptene-8-carboxylic acid methyl ester hydrochloride], testing at 1 µM with TNF-α [3] gave an inhibition of 66%. For the same compound, the “% toxicity (10 μM), 5 h” value in series [1] is on record as 21%. The same compound gave an IC50 with TNF-α [2] (setting [4]) of 840 nM. On to `CCN1CCN(c2cc(Cl)c3c(c2)CS(=O)(=O)c2cc(CO)cc(C)c2O3)CC1` [Example 34, [4-Chloro-2-(4-ethyl-piperazin-1-yl)-6-methyl-10,10-dioxo-10,11-dihydro-5-oxa-10lambda*6*-thia-dibenzo[a,d]cyclohepten-8-yl]-methanol], for which the melting point was in the range of 230 to 232 °C. As to `Cc1cc(C=O)cc2c1Oc1c(Cl)cc(N3CCNCC3)cc1CS2(=O)=O` [Example 35, 4-Chloro-6-methyl-10,10-dioxo-2-piperazin-1-yl-10,11-dihydro-5-oxa-10lambda*6*-thia-dibenzo[a,d]cycloheptene-8-carbaldehyde], the inhibition at 1 µM with TNF-α [3] amounted to 45%. In addition, in series [1], the “% toxicity (10 μM), 5 h” value came to 07%. Moreover, the IC50 in the series with TNF-α [2] (setting [4]) was found to be 1400 nM. `COC(=O)c1cc(C)c2c(c1)S(=O)(=O)Cc1cc(N)cc(Cl)c1N2` [Example 37, 2-Amino-4-chloro-6-methyl-10,10-dioxo-10,11-dihydro-5H-10lambda*6*-thia-5-aza-dibenzo[a,d]-cycloheptene-8-carboxylic acid methylester] displayed a melting point of 278 to 280 °C. Further, in the series with TNF-α [3], testing at 1 µM gave an inhibition of 33%. On to `COC(=O)c1cc(C)c2c(c1)S(=O)(=O)Cc1cc(NC=O)cc(Cl)c1N2` [Example 38, 4-Chloro-2-formylamino-6-methyl-10,10-dioxo-10,11-dihydro-5H-10-lambda*6*-thia-5-aza-dibenzo[a,d]-cycloheptene-8-carboxylic acid methyl ester], for which, in the series on TNF-α [3], the “% inhibition of TNF-α release” value is listed as 45%. The “% toxicity (10 μM), 5 h” value in series [1] came out at 10 ± 04%. For the same compound, the IC50 in the series with TNF-α [2] (TNF-α production in PBMC; LPS 1 μg/ml, 4.5 h; ELISA or L929 bioassay) came to 1200 ± 1580 nM. With `COC(=O)c1ccc2c(c1)S(=O)(=O)Cc1ccccc1C2O` (centres unmarked) [Example 40, 5-Hydroxy-10,10-dioxo-10,11-dihydro-5H-10lambda*6*-thia-dibenzo[a,d]cycloheptene-8-carboxylic acid methyl ester], the “% toxicity (10 μM), 5 h” value in series [1] came out at 8%. The compound further came in with an IC50 with TNF-α [2] (setting [4]) greater than 10000 nM.

For the origin of these results see US7964631B2, “Fused tricyclic compounds as inhibitors of tumor necrosis factor-α” (Piramal Life Sciences Limited, priority 2004, dated 2011).
